The text below walks through data of patent US6096874A (Board of Regents, the University of Texas System, priority 1995, dated 2000).

The test system of one data set is MCF7 cells. Briefly: MCF7 breast tumor cell growth inhibition, 72 h, MTT tetrazolium dye assay. Type of data set: cell-based, human. The conditions noted are these: for Tumor cell inhibition (in words) / Potency against MCF7 compared with tamoxifen: 72 h; for RP (relative potency): tamoxifen = 100. Here is the method: The MCF7 cell line is a human tumor cell line. This cell line was cultured in MEM (Eagles) media in a 5% CO^2 atmosphere with 10% fetal calf serum that had been washed twice with dextran coated charcoal to reduce endogenous estrogen levels. The media was supplemented with 1 mM sodium pyruvate and 100 μm non-essential amino acids. The cell line was screened routinely for myoplasma contamination using the GenProbe kit (Fisher). Cells were trypsinized and plated at a density of 5,000 cells/well in 96 well microtiter plates and allowed to attach and recover for 24 hours.
The media was removed by aspiration and replaced with filter sterilized drug (concentration from 10^-4 M to 10^-5 M) in media. The cells were incubated for 72 hours and then stained using the mTT tetrazolium dye assay of Mosmann^36 except that after the media was removed, the blue formazan product was solubilized in 50 μl/well DMSO.

Another data set has as its target T1, estrogen receptor (Sus scrofa, UniProt Q29040).
T1 sequence (Q29040 1-595): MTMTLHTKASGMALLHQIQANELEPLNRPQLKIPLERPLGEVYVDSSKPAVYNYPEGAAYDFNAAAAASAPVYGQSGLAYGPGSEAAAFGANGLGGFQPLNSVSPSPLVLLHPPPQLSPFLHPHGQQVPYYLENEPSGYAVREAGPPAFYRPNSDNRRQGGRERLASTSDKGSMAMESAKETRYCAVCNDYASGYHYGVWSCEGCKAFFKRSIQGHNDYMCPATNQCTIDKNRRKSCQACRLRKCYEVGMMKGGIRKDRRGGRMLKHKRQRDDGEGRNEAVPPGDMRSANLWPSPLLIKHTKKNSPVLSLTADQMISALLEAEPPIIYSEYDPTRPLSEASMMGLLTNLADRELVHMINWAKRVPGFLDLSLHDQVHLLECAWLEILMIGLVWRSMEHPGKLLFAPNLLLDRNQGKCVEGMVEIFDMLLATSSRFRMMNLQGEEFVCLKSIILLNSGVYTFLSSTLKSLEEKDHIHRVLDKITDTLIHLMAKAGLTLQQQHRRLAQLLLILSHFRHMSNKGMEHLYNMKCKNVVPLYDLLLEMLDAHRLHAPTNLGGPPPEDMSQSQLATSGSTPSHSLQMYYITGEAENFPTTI
The conditions noted are these: for RBA (relative binding affinity): tamoxifen = 100; for Enhancement of estrogen receptor binding affinity: compared to tamoxifen.

The nature of the next data set: in vivo. The conditions noted are these: compared with DTPA-Tamoxifen and DTPA-Vitamin A conjugates. Set-up: species or system rat. Here is the method:
In animal tissue distribution studies, each rate was given 8.9 μCi (0.15 ml) tracer intravenously. The tumor-bearing rats were killed at 1, 3, 6 and 24 h. […] The amount of DES given should occupy tumor estrogen receptor sites. The methods for inducing tumors in rats was as described by those of skill in the art (radiology). […]
Female Fisher 344 rats (250-275 g) (Harlan, Inc., Indianapolis, Ind.) were inoculated with mammary tumor cells using the 13762 tumor cell line (s.c. 10^5 cells/rat). After 14 days, a tumor size of 1-2 cm was observed. For ^131 I-ITX studies, five groups of rats (N=3/group) were anesthetized with ketamine (10-15 mg/rat). The trans ^131 I-ITX was given to four of the five groups (8.9 μCi/rat, i.v.) and biodistribution was studied at 1, 3, 6 and 24 h intervals. In blocking studies, the fifth group of rats was given diethylstilbestrol (DES) (1.2 mg/rat) for 1 h, followed by 8.9 μCi of ^131 I-ITX; biodistribution was studied 6 h later. The tissues were collected at different time intervals. The tissues were weighted and counted for radioactivity. The percent of injected dose per gram of tissue weight was calculated. […]

Data set [1] can be described thus: Acute/immediate toxicity following i.v. injection in BALB/c mice. The conditions noted are these: for MTD / Maximum dose tolerated: mouse, in vivo, iv; for Mice died: 20 mg/kg i.v. Here is the method: Acute toxicity studies were performed in BALB/c female mice with doses tested at 20, 50 and 200 mg/kg (i.v., n=5 mice per dose).

Where two headings read alike, the source gives them in different places.

Method for estrogen receptor: A previously reported procedure was modified by the inventors and used for this purpose.^10,11 TEA buffer was used by the Inventors for tissue preparation.
Briefly, uteri (90 gm) were obtained from immature domestic swine (15 kg) was homogenized in Tris buffer (10 mM, pH 7.4) (1 uterus/180 ml), which contained EDTA (1.5 mM) and sodium Azide (3 mM). The homogenate was centrifuged at 100,000 g for 1 hour at 4° C. Uteri cytosol (contains 2% of protein from corresponding uterus tissue) were then pretreated with dextran-coated charcoal as described.^10 Protein concentrations were determined according to the method of Lowry et al.^12
*The relative binding affinity (RBA) for the pig uteri estrogen receptor

Regarding `CCN(CC)CCOc1ccc(/C(=C(\CCF)c2ccccc2)c2ccccc2)cc1` (single isomer, unassigned) [IV (Cis), N,N-diethyl-fluorotamoxifen], the “Tumor cell inhibition (in words)” value in the data set on MCF7 cells is “effective as inhibiting a breast tumor cell line”; with MCF7 cells (listed as cis N,N-diethyl-fluoro), “more potent than the trans isomers”. For the same compound, the “RBA (relative binding affinity)” value on estrogen receptor amounted to 100.
As for `CCN(CC)CCOc1ccc(/C(=C(/CCCBr)c2ccccc2)c2ccccc2)cc1` [(XI) BrM (trans), N,N-diethyl-bromomethyltamoxifen], the “RBA (IC50 ratio between tamoxifen and competitor)” value on estrogen receptor (Table 7, tamoxifen printed as 1) was 150. Also, the “Enhancement of estrogen receptor binding affinity” value at estrogen receptor was 50 fold.
For the compound `CCN(CC)CCOc1ccc(/C(=C(/CCCCl)c2ccccc2)c2ccccc2)cc1` [(XII) ClM (trans), N,N-diethyl-chloromethyltamoxifen], the IC50 on estrogen receptor (read-out: IC50 estrogen receptor binding, pig uterus, [3H]estradiol 5 nM) worked out at 400 nM.
Take `CCN(CC)CCOc1ccc(C(=C(CCCF)c2ccccc2)c2ccccc2)cc1` [Compound VI, N,N-diethyl-fluoromethyltamoxifen]: in the data set with MCF7 cells, the “Tumor cell inhibition (in words)” value is reported as “effective as inhibiting a breast tumor cell line”.
Still for that read-out and setting: as for `CCN(CC)CCOc1ccc(C(=C(CCCI)c2ccccc2)c2ccccc2)cc1` [Compound X, N,N-diethyl-iodomethyltamoxifen], the entry is “effective as inhibiting a breast tumor cell line”.
For `CCN(CC)CCOc1ccc(C(=C(CCCBr)c2ccccc2)c2ccccc2)cc1` [Compound XI, 1-[4-(2-Diethylaminoethoxy)phenyl]-1,2-diphenyl-5-bromo-1-entene], the “Potency against MCF7 compared with tamoxifen” value in the data set with MCF7 cells is given as approximately 25 fold. The “Estrogen receptor binding (in words)” value on estrogen receptor (listed as Bromomethyl tamoxifen) was “binds to estrogen receptors with greater affinity than the other halogenated tamoxifen analogs tested”; at estrogen receptor (listed as bromomethyl-Tx) it was “bind to estrogen receptors greater than other halogenated tamoxifens tested”.
Regarding `NCCc1ccc(NC(=O)CN(CCN(CCN(CC(=O)O)CC(=O)O)CC(=O)O)CC(=O)O)cc1` [DTPA, DTPAp-(amino ethyl) anilide, reference compound], the “Blood clearance and tumor-to-tissue uptake ratios (in words)” value in “in vivo” is “faster blood clearance and less tumor-to-tissue uptake ratios”.
For `CCN(CC)CCOc1ccc(/C(=C(/CCCO)c2ccccc2)c2ccccc2)cc1` [III (trans), N,N-diethyl-hydroxymethyltamoxifen], in the data set on MCF7 cells, the “RP (relative potency)” value worked out at 50. Moreover, the “RBA (relative binding affinity)” value on estrogen receptor stood at 400.
`CCN(CC)CCOc1ccc(/C(=C(/CCF)c2ccccc2)c2ccccc2)cc1` [IV (trans), N,N-diethyl-fluorotamoxifen]: the “Enhancement of estrogen receptor binding affinity” value on estrogen receptor is “two and a half times”.
Turning to `CCN(CC)CCOc1ccc(/C(=C(\CCCF)c2ccccc2)c2ccccc2)cc1` [VI (Cis), N,N-diethyl-fluoromethyltamoxifen], in the data set with MCF7 cells, the “Potency against MCF7 compared with tamoxifen” value was 3 fold and the “Tumor cell inhibition (in words)” value is given as “more potent than the trans isomers”.
Take `CCN(CC)CCOc1ccc(/C(=C(\CCCBr)c2ccccc2)c2ccccc2)cc1` [cis-BTX]: in data set [1], the MTD was found to be 50 mg/kg.
Still for that read-out and setting: as for `CCN(CC)CCOc1ccc(/C(=C(\CCCCl)c2ccccc2)c2ccccc2)cc1` [cis-CITX, chlorotamoxifen], the figure is 50 mg/kg.
The same measure, in the same setting: as for `CCN(CC)CCOc1ccc(/C(=C(\CCCI)c2ccccc2)c2ccccc2)cc1` [cis-ITX, iodotamoxifen], the figure is 50 mg/kg.
On to `CCN(CC)CCOc1ccc(/C(=C(/CCCBr)c2ccccc2)c2ccccc2)cc1` [trans-BTX], for which the MTD in data set [1] is 50 mg/kg.
As for `CCN(CC)CCOc1ccc(/C(=C(/CCCI)c2ccccc2)c2ccccc2)cc1` [trans-ITX, iodotamoxifen], in data set [1], the Mice died is given as 3/4 and the MTD stood at 8 mg/kg. Also, the Mice died in data set [1] (listed as trans ITX) is 3 out of 4. Further, the “Toxicity (in words)” value in data set [1] (i.v.) is listed as “lethal effects of transITX were immediate”.
As to Fluorotamoxifen [(VII) FTX (Cis)], the “RP (relative potency)” value with MCF7 cells is listed as 224.
In data set [1], fluorotamoxifen [cis-^18 F-FTX] gave a Maximum dose tolerated of 50 mg/kg.
In turn, fluorotamoxifen [trans^18 F-FTX] registered a Maximum dose tolerated in data set [1] of 200 mg/kg.

As usually defined, the IC50 is the concentration that gives 50% inhibition.
